# Literature values in patent US11554190B2, “Nanocarriers for the delivery of active ingredients” (President and Fellows of Harvard College, priority 2017, dated 2023).
# Where two headings read alike, the source gives them in different places.
# Assays:
# bacteria = conditions: same amount of time
# [1] = system: Acinetobacter on surfaces; conditions: peak hydrogen peroxide concentration 500-600 ppm
# Listeria on lettuce = conditions: vaporized from 10% w/v hydrogen peroxide solution
# pathogens on surfaces = conditions: 5% w/v, wet approach
# [2] = system: surface deposited influenza; conditions: 90 ppm of vapor phase H2O2, similar times of treatment
compound,measurement,setting,value
OO [hydrogen peroxide],log reduction,bacteria; aqueous solution at 5% concentration,2.2 log
same,log reduction,bacteria; aqueous solution at 10% concentration,3.5 log
same,log reductions in the concentration of Acinetobacter on surfaces,[1],4 log
same,log reduction in concentration of Listeria on lettuce,Listeria on lettuce,3 log
same,effectiveness against pathogens on surfaces,pathogens on surfaces,ineffective
same,log reductions of surface deposited influenza,[2],5 log
